In patent US20110160279A1, “METHODS FOR TREATMENT AND PREVENTION OF OTOTOXICITY BY siRNA” (BOARD OF TRUSTEES OF SOUTHERN ILLINOIS UNIVERSITY, priority 2007, published 2011):

How the values were obtained:
[1] = system: TRPV1; test: TRPV1 immunoreactivity in rat cochlea sections; type: in vivo; conditions: 72 h following cisplatin 13 mg/kg i.p.; confocal microscopy
Experimental: Cochleae perfused with 4% paraformaldehyde were processed for decalcification and sectioning as described in (Dunaway et al., 2003). TRPV1-1 antibody was diluted 1:100 and samples were incubated for 1 h at 37° C. incubator. Secondary antibody used was goat anti-rabbit IgG conjugated to horse radish peroxidase (Santa Cruz Biotechnology, Inc, Santa Cruz, Calif.) which was diluted 1:200. ABC staining system (Santa Cruz Biotechnology), which included a diaminobenzadine as a peroxidase substrate, was used for visualization of protein expression. Slides were imaged using Scion Imaging system (Frederick, Md.).
Rats were tested for hearing loss 72 h later using auditory brainstem evoked responses (ABRs). […] Cochleas obtained from these animals were decalcified, sectioned and processed for TRPV1 immunoreactivity using a polyclonal antibody (as described in Puntambekar et al., 2005). Visualization by confocal microscopy indicated TRPV1 immunoreactivity in the organ of Corti, supporting cells and spiral ganglion cells. […] The increases were 18±1 and 15±3 at 48 h and 72 h, respectively (FIG. 1C).

[2] = system: TRPV1 mRNA; test: Real time RT-PCR of TRPV1 mRNA in rat cochlea; type: in vivo; conditions: rat cochlea
Experimental: (§1) Animal procedures and sample collection: Male Wistar rats were used for this study. Pre-ABR's were performed 2-3 days before round window application of siTRPV1 or PBS. […] The cochleas were dissected and used for the preparation of total RNA or total protein extracts, or perfused with 2.5% glutaraldehyde for morphological studies by Scanning Electron Microscopy (SEM's) or 4% paraformaldehyde for immunocytochemistry.
(§2) RNA was isolated by adding 1 ml TR1 reagent to 100 mg of cochlear or cortical tissue or 0.5 ml TR1 reagent (Sigma, St. Louis, Mo.) per well of each six well plate, according to the manufacturer's instructions.
(§3) Real time reverse transcriptase polymerase chain reaction (RT-PCR): One microgram of total RNA was converted to cDNA using iScript cDNA Synthesis Kit (Bio-Rad, Hercules, Calif.), and qRTPCR was performed as described by (Mukherjea et al, 2006). Gene specific primer pairs were used for the various reactions and mRNA expression levels were normalized to the levels of GAPDH house keeping gene.
(§4) The rodent set of primers and siRNA were based on the homologous sequences in the rat and mouse cDNA sequences. The primers were purchased from Sigma Genosys (St. Louis, Mo.). Purified siRNA duplexes were purchased from Qiagen (Valencia, Calif.).

[3] = system: NOX3 mRNA; test: Real time RT-PCR of NOX3 mRNA in rat cochlea; type: in vivo; conditions: cisplatin, 72 hrs
Experimental: as §1, §2, §3, §4

[4] = system: Rac1; test: Real time RT-PCR of Rac1 transcript in rat cochlea; type: in vivo; conditions: cisplatin (data not shown)
Experimental: as §2, §3
(§5) The rodent set of primers and siRNA were based on the homologous sequences in the rat and mouse cDNA sequences. The primers were purchased from Sigma Genosys (St. Louis, Mo.). Purified siRNA duplexes were purchased from Qiagen (Valencia, Calif.). Primers were as follows: Rodent NOX3 (sense): 5′-[…]-3′ (SEQ ID NO: 9) (antisense): 5′-[…]-3′ (SEQ ID NO: 10), Rodent-GAPDH (sense): 5′-[…]-3′ (SEQ ID NO: 11) (antisense): 5′-[…]-3′ (SEQ ID NO: 12), Rodent TRPV1 (sense): 5′-[…]-3′ (SEQ ID NO: 13), (antisense): 5-[…]-3′ (SEQ ID NO: 14), Rodent Rac-1 (sense): 5′-[…]-3′ (SEQ ID NO: 15), (antisense): 5′-[…]-3′ (SEQ ID NO: 16), Rodent gp-91 (sense) 5′-[…]-3′ (SEQ ID NO: 17), (antisense): 5′-[…]-3′ (SEQ ID NO: 18), and Rat p22 (sense): 5′-[…]-3′ (SEQ ID NO: 19), (antisense) 5′-[…]-3′ (SEQ ID NO: 20) […]

[5] = system: gp91; test: Real time RT-PCR of gp91 transcript in rat cochlea; type: in vivo; conditions: cisplatin (data not shown)
Experimental: as §2, §3, §5

[6] = system: TRPV1 protein; test: Western blot of TRPV1 protein in whole cochlear lysates; type: in vivo, rat; conditions: 72 h following cisplatin
From the text: Cochleae were homogenized in ice-cold TRIS 50:10:100. The whole tissue lysate was then used for Western blotting. After transfer to nitrocellulose membrane TRPV1 protein was visualized by chemiluminesence detection (ECL, Amersham, Piscataway, N.J.).

[7] = system: TRPV1; type: cell-based, mouse; conditions: cisplatin 2.5 μM, 24 h
Experimental: (§6) Immortalized organ of Corti cells derived from the mouse, UB/OC-1 cells, were obtained from Dr. Matthew Holley (Institute of Molecular Physiology, Addison Building, Western Bank, Sheffield, UK) and cultured in RPMI 1640 supplemented with 10% Fetalclone II (Hyclone, Logan, Utah) serum and penicillin-streptomycin. Cultures were grown in a 33° C. incubator in 10% CO2.
To further study the role of ROS generated via cochlear NADPH oxidases in the induction of TRPV1 in the cochlea, in vitro experiments were performed using the organ of Corti transformed hair cell line, UB/OC1 (Rivolta et al., Proc. R. Sco. Lond., 265, 1595-1603, 1998). […] Immunolabeling was quantitated by fluorescence imaging using a confocal microscope. […] The immunofluorescence in these groups was reduced by 60 and 70%, respectively (FIG. 2B). […] The increases in expression of these genes were inhibited by DPI (10 μM), indicative of a role or NADPH oxidase activity in the induction of these subunits (FIG. 2G).

[8] = system: TRPV1 protein; test: Western blot of TRPV1 protein in UB-OC1 cells; type: cell-based, mouse; conditions: cisplatin 2.5 μM
[9] = system: UB-OC1 cells; test: Cisplatin-induced ROS generation by DCF2DA fluorescence in UB-OC1 cells; type: cell-based, mouse; conditions: cisplatin 2.5 μM, 30 minute
[10] = system: NOX3 mRNA; test: Real time RT-PCR of NOX3 mRNA in UB/OC-1 cells; type: cell-based, mouse; conditions: cisplatin 2.5 μM
Experimental: as §6, §2, §3, §4

[11] = system: p53; test: p53 protein expression in UB/OC-1 cells; type: cell-based, mouse; conditions: cisplatin, 24 hr
Experimental: (§7) The increases in these proteins were attenuated by capsazepine (10 μM), implicating TRPV1 in this process.

[12] = system: UB/OC-1 cells; test: Intracellular Ca2+ with Fura4-AM in UB/OC-1 cells; type: cell-based, mouse; conditions: cisplatin
Experimental: as §7

## N.N.[Cl][Pt][Cl] [cisplatin]
[1]
  elevation of TRPV1 immunoreactivity in hair cells and spiral ganglion cells: 2-3 fold
[2]; 24 h following cisplatin
  increase in TRPV1 transcripts: 15±1 fold
[2]; 48 h following cisplatin
  increase in TRPV1 transcripts: 18±1
[2]; 72 h following cisplatin
  increase in TRPV1 transcripts: 15±3
[2]; lipoic acid experiment (FIG. 1D), 72 hrs
  level of induction of TRPV1 by cisplatin: 5.5±1.5 fold
[3]
  change in NOX3 transcript in the cochlea: small but statistically significant increase
[4]
  increase in Rac1 expression: 478±85 fold
[5]
  increase in gp91 expression: 1000±102 fold
[6]
  TRPV1 protein (~95 kDa band) in whole cochlear lysates: increased TRPV1 protein
[7]
  induction in TRPV1 immunoreactivity over control vehicle treated cells: 71±29%
[8]
  increase in TRPV1 protein by Western blotting: 90%±10%
[9]
  ROS generation by DCF2DA fluorescence: robust increase
[10]
  increase in NOX3 mRNA: 2.7 fold
[11]
  p53 protein: increases
[12]
  intracellular Ca2+: increased intracellular Ca2+
